Measured values: PubChem BioAssay (NCI)
Several values for one entry are separate records, joined by “and”; a condition that tells them apart may be missing. Equal entries are not always repeated.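 Following 48 hours of exposure in 96-well plates, responses at five concentrations were used to interpolate endpoints linearly. At the GI50, growth is halved. TGI: total growth inhibition.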

How the values were obtained:
Assay in all cases: inhibition of tumour cell growth, NCI panel, 48 h
[1] = tested on: SK-MEL-2 melanoma
[2] = tested on: 786-0 renal
[3] = tested on: SN12C renal
[4] = tested on: OVCAR-5 ovarian
[5] = tested on: HOP-62 NSCLC
[6] = tested on: UACC-62 melanoma
[7] = tested on: UACC-257 melanoma
[8] = tested on: ACHN renal
[9] = tested on: MALME-3M melanoma

Compound | GI50 [1] [µM] | TGI [1] [µM] | GI50 [2] | TGI [2] [µM] | GI50 [3] | TGI [3] [µM] | GI50 [4] | TGI [4] [µM] | GI50 [5] | TGI [5] [µM] | GI50 [6] [µM] | TGI [6] [µM] | GI50 [7] | TGI [7] [µM] | GI50 [8] | TGI [8] [µM] | GI50 [9] | TGI [9] [µM]
CS(=O)(=O)c1ccc(-n2nc(C(F)(F)F)cc2OC2CCCC2)cc1 | > 100 | > 100 | 34 µM | > 100 | 25.8 µM | 71.7 | > 100 µM | > 100 | 88 µM | > 100 | 33.3 | > 100 | 40.1 µM | > 100 | 22.4 µM | 56 |  | 
COc1ccc2c(c1)CCCN2c1c2ccccc2nc2ccccc12 | 0.813 | > 100 | 0.549 µM | 9.3 | 0.73 µM | > 100 | 0.544 µM | > 100 |  |  | 0.38 | 3.54 | 8.11 µM | > 100 | 0.611 µM | > 100 | 4.26 µM | > 100
N#C/C(=C\c1ccc2ccccc2c1)c1ccccc1 |  | 85 |  | 41.3 |  | > 100 |  | > 100 |  | 74.6 |  | 36.7 |  | > 100 |  | 98.3 |  | 
COc1ccc(-c2onc(N)c2-c2cc(OC)c3c(c2)OCO3)cc1 |  |  | 7.24 µM | > 100 | 4.26 µM | > 100 | 6.74 µM | > 94 | 4.53 µM | > 100 | 1.96 | > 46.9 | 3.43 µM | > 100 | 6.39 µM | > 100 | 6.1 µM | > 100
O=c1cc(-c2ccccc2)oc2cc(OC/C(=N/O)c3ccccc3)ccc12 | 20.2 | > 50 | 26.1 µM | > 50 | 10.9 µM | 44.6 | > 50 µM | > 50 | 22.4 µM | > 50 | 12.7 | > 50 | > 50 µM | > 50 | 9.41 µM | 20.2 |  | 
CC(C)(C)c1cc(CCC(=O)Nc2ccc(Cl)cc2)nc(NC#N)n1 |  | > 100 |  | > 100 |  |  |  | > 100 |  | > 100 |  | > 100 |  | > 100 |  | > 100 |  | 
COc1ccc(NC(=O)CC(=O)N/N=C/c2ccc(N(CCC#N)S(C)(=O)=O)cc2)cc1 |  | > 100 |  | > 100 |  | > 100 |  | > 100 |  | > 100 |  | > 100 |  |  |  | > 100 |  | > 100
COc1ccc2c(c1)C(=O)c1c-2n(CCCn2ccnc2)c(=O)c2cc([N+](=O)[O-])ccc12 | 0.245 |  | < 0.01 µM |  | < 0.01 µM | > 100 | < 0.0156 µM |  | < 0.01 µM | 0.0119 | < 0.01 | 0.075 | 0.115 µM |  |  |  | < 0.0197 µM | 10.8
CCc1ccccc1NC(=O)C1=C(C)NC(C)=C(C(=O)Nc2ccccc2CC)C1c1ccc2c(c1)OCO2 |  | 53.1 |  | > 100 |  | > 100 |  | 82.9 |  | 59.8 |  |  |  | > 100 |  | 90.7 |  | 99
NC1=NC(c2ccccc2)CC(c2cc(Cl)ccc2O)=N1 (stereo not given) |  |  |  | 32.5 |  | 26.9 |  | 34.6 |  | 30.2 |  | 30.4 |  | 35.7 |  | 29.4 |  | 38
CCCCCCCC(=O)OCC/C=C/C1OC1C1OC(=O)/C=C\C=C\c2nc(oc2C)/C=C(/C)CCC2OC2C1OC(=O)NC(C)=O (stereo not given) | 0.0222 | 0.0647 | 0.033 µM | 0.203 | 0.0491 µM | 0.554 | 0.0193 µM | 0.104 | 0.0686 µM | 0.381 | 0.0316 | 0.0808 | 0.0301 µM | 0.125 | 0.0103 µM | 0.933 |  | 
O=C(CC1(O)C(=O)Nc2c(Cl)ccc(Cl)c21)c1ccc(F)cc1 (stereo not given) |  | > 100 |  | > 100 |  | > 100 |  | > 100 |  | > 100 |  |  |  | > 100 |  | > 100 |  | > 100
O=C(O)CCSC(=O)Nc1ccc([N+](=O)[O-])cc1 |  | > 100 |  | > 100 |  | > 100 |  |  |  | > 100 |  |  |  | > 100 |  | > 100 |  | 
COc1ccc2nc3c(C(=O)NCCN(C)C)cccc3nc2c1 |  | 21.8 |  | > 100 |  | 22.5 |  | 81.3 |  | 21.4 |  | 21.2 |  | 19.9 |  | > 100 |  | 
O=C(N/C(=C\c1cccc([N+](=O)[O-])c1)c1nc2ccc([N+](=O)[O-])cc2[nH]1)c1ccccc1 |  | 61 |  | > 100 |  | > 100 |  | > 100 |  |  |  | 46.7 |  |  |  | > 100 |  | > 100
CC(=O)O[C@H]1C(=O)[C@@]2(C)C(C(OC(=O)c3ccccc3)[C@]3(O)CC(OC(=O)[C@H](OC(=O)CCC(=O)O)C(NC(=O)c4ccccc4)c4ccccc4)C(C)=C1C3(C)C)C1(OC(C)=O)COC1C[C@@H]2O (stereo not given in full) |  |  | 0.0303 µM and 0.108 µM | > 100 | < 0.01 µM and 0.0287 µM | > 100 | < 0.0146 µM and 0.0324 µM | > 36.1 | < 0.0175 µM and 0.0835 µM | > 100 |  |  | < 0.01 µM and 0.0295 µM | > 100 | 0.19 µM and 0.821 µM | > 100 | < 0.01 µM and 0.0659 µM | > 100
O=C(Nc1ccc(-c2nc(N3CCOCC3)c3cccn3n2)cc1)Nc1cccnc1 | 0.333 | > 100 | 0.178 µM | 1.98 |  |  | 0.071 µM | > 100 | 0.336 µM | > 100 |  |  | 0.428 µM | 40.8 | 0.189 µM | 3.64 | 0.082 µM | 0.471
CC1(C)OC2=C(CC1Br)C(=O)C(=O)c1ccccc12 (stereo not given) | 1.65 | 3.57 | 1.91 µM | 3.43 | 1.84 µM | 3.75 |  |  | 1.99 µM | 3.62 | 2.08 | 3.98 | 1.76 µM | 3.27 | 2.03 µM | 3.84 | 1.8 µM | 3.52
O=S(=O)(NC1=NCCN1C(=S)SN1CCn2c1nsc2=S)c1cccc(Cl)c1 | 26 | 98.9 | 19.9 µM | 55.3 | 14.9 µM | 40.6 | 19.7 µM | 39.2 | 18.5 µM | 37.6 | 15.4 | 34.3 | 18.6 µM | 39.5 | 13.8 µM | 30.6 |  | 
